In test [1] the target is Proto-oncogene tyrosine-protein kinase Src (Homo sapiens, UniProt P12931). Kind of test: In vitro kinase assay using Abl, Abl T315I or Src kinase.
For test [2], the target named is Tyrosine-protein kinase ABL1 (Homo sapiens, UniProt P00519). Put plainly: In Vitro Kinase Assay.
Test [3] addresses Tyrosine-protein kinase ABL1 [T315I] (Homo sapiens, UniProt P00519, T315I). Put plainly: In Vitro Kinase Assay.

The structures appear in SMILES notation.

Proto-oncogene tyrosine-protein kinase Src, sequence (P12931 whole entry, looked up): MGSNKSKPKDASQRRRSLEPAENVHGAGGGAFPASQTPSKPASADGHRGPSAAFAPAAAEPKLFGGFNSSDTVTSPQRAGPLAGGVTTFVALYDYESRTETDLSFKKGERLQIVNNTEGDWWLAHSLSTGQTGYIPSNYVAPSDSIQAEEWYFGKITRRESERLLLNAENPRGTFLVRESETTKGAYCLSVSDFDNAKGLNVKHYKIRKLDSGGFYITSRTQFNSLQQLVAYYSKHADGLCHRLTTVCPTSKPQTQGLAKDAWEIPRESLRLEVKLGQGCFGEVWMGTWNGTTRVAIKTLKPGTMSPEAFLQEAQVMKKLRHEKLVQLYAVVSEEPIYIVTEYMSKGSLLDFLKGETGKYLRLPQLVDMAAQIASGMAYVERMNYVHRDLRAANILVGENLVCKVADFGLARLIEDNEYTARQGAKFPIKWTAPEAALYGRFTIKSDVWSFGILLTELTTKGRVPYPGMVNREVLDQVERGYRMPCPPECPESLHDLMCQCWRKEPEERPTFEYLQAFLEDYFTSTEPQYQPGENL

With `Cc1ccc2[nH]ncc2c1/C=C/n1cnc2c(Nc3ccc(P(C)(C)=O)cc3)ncnc21`, the values for the IC50 in test [1], in test [2] and in test [3] were less than 0.5 nM, less than 0.5 nM and greater than 10000 nM, respectively.

Turning to `Cc1cccc(C)c1/C=C/n1cnc2c(Nc3ccc(P(C)(C)=O)cc3)ncnc21` [AP24149], the concentration for half-maximal inhibition (IC50) (usually the concentration that gives 50% inhibition) in test [1] worked out at 9.1 nM; in test [3], 8900 nM.

(Values after BindingDB's records for doi:10.1111/j.1747-0285.2009.00905.x (Ariad Pharmaceuticals, 2010).)
